From PubChem BioAssay (NCI) come the findings set out here.

Molecules are shown by their SMILES.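 A five-concentration, 48-hour dose response in 96-well plates underlies each endpoint, interpolated linearly between surrounding concentrations. The concentration for full growth arrest is given as TGI.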

Among the test systems are PC-3 prostate; U251 CNS; OVCAR-5 ovarian; SK-MEL-28 melanoma; MDA-MB-231 breast; UO-31 renal; OVCAR-8 ovarian; 786-0 renal; MOLT-4 leukemia; SR leukemia; OVCAR-3 ovarian; IGROV1 ovarian; CAKI-1 renal; CCRF-CEM leukemia; MALME-3M melanoma; NCI-H522 lung; SF-539 CNS; HS 578T breast; MCF7 breast.
Assay in all cases: NCI anticancer screen, dose series, 48 h

On to `CC1CCC(C(=O)O)(C(Br)C(=O)O)CC1` (configuration not stated), for which the TGI in the assay on PC-3 prostate, in the assay with U251 CNS, with OVCAR-5 ovarian, in the assay on SK-MEL-28 melanoma, with MDA-MB-231 breast and in the assay with UO-31 renal was over 100 µM throughout. The TGI in the assay on OVCAR-8 ovarian, in the assay with 786-0 renal, in the assay on MOLT-4 leukemia, in the assay with SR leukemia, in the assay with OVCAR-3 ovarian and with IGROV1 ovarian was over 100 µM in each case. For the same compound, the TGI in the assay on CAKI-1 renal and with CCRF-CEM leukemia was over 100 µM each time.

As for `O=C1NCC2(CCN(CCCC3(c4ccc(F)cc4)OCCO3)CC2)N1c1ccccc1`, the TGI in the assay with MALME-3M melanoma, with PC-3 prostate, in the assay with U251 CNS, in the assay on OVCAR-5 ovarian, with NCI-H522 lung and in the assay on SK-MEL-28 melanoma was over 100 µM in each case. Besides, the TGI in the assay on SF-539 CNS, in the assay on HS 578T breast, in the assay with MDA-MB-231 breast, in the assay with OVCAR-8 ovarian, in the assay with 786-0 renal and in the assay with MOLT-4 leukemia was over 100 µM throughout. Further, the TGI in the assay with SR leukemia, with OVCAR-3 ovarian, in the assay on IGROV1 ovarian, in the assay on CAKI-1 renal and with CCRF-CEM leukemia was over 100 µM each time.

For the compound `COc1cc(NS(C)(=O)=O)ccc1Nc1cc(C)[nH]c2ccc3nccc3c12`, the TGI with PC-3 prostate, with U251 CNS, with OVCAR-5 ovarian, with NCI-H522 lung, in the assay on SK-MEL-28 melanoma and in the assay on HS 578T breast was over 100 µM in each case. Moreover, the TGI in the assay on MCF7 breast, in the assay on MDA-MB-231 breast, in the assay with UO-31 renal, in the assay on OVCAR-8 ovarian, with 786-0 renal and with OVCAR-3 ovarian was over 100 µM in each case. For the same compound, the TGI in the assay with IGROV1 ovarian and in the assay with CAKI-1 renal was over 100 µM each time.

`O=C(O)CCC(=O)OC1N=C(c2ccccc2Cl)c2cc([N+](=O)[O-])ccc2NC1=O` (configuration not stated): the TGI with MALME-3M melanoma, with PC-3 prostate, in the assay on U251 CNS, in the assay on OVCAR-5 ovarian, in the assay with NCI-H522 lung and in the assay with SK-MEL-28 melanoma was over 100 µM in each case. The TGI in the assay with HS 578T breast, with MCF7 breast, with MDA-MB-231 breast, with UO-31 renal, in the assay with OVCAR-8 ovarian and in the assay with 786-0 renal was over 100 µM each time. The TGI with OVCAR-3 ovarian, in the assay on IGROV1 ovarian, with CAKI-1 renal and with CCRF-CEM leukemia was over 100 µM each time.

For `c1c[nH]c(-c2ccc(-c3ccc[nH]3)c3nsnc23)c1`, the TGI was over 100 µM with PC-3 prostate; over 66.5 µM in the assay on U251 CNS; over 96.1 µM in the assay with OVCAR-5 ovarian; over 100 µM in the assay with NCI-H522 lung; over 100 µM with SK-MEL-28 melanoma; over 76.8 µM in the assay on SF-539 CNS. For the same compound, the TGI in the assay with HS 578T breast was over 100 µM; in the assay on MCF7 breast it was over 100 µM; in the assay with MDA-MB-231 breast it was over 84.8 µM; with UO-31 renal, over 74.7 µM; with OVCAR-8 ovarian, over 60.4 µM; in the assay with 786-0 renal, over 67.6 µM. The TGI in the assay on MOLT-4 leukemia is over 45.8 µM; with OVCAR-3 ovarian, 95.4 µM; with IGROV1 ovarian, over 100 µM; with CAKI-1 renal it was over 100 µM; in the assay on CCRF-CEM leukemia, over 35.3 µM.

For the compound `COc1ccc(-c2nc(SCC(=O)N/N=C/c3ccc(N(C)C)cc3)[nH]c2-c2ccc(OC)cc2)cc1`, the TGI with MALME-3M melanoma, in the assay on PC-3 prostate, in the assay with U251 CNS, in the assay with OVCAR-5 ovarian, in the assay on NCI-H522 lung and in the assay on SK-MEL-28 melanoma was over 100 µM throughout. The TGI with SF-539 CNS, in the assay with MCF7 breast, in the assay on MDA-MB-231 breast, in the assay on UO-31 renal, in the assay with OVCAR-8 ovarian and in the assay with 786-0 renal was over 100 µM in each case. Also, the TGI in the assay with OVCAR-3 ovarian, with IGROV1 ovarian, in the assay on CAKI-1 renal and with CCRF-CEM leukemia was over 100 µM throughout.

As for `Oc1ccc([I+]c2ccccc2)cc1O`, the TGI with MALME-3M melanoma was over 100 µM; in the assay on PC-3 prostate, 64.1 µM; in the assay on U251 CNS it was over 100 µM; in the assay on OVCAR-5 ovarian, over 100 µM; in the assay with NCI-H522 lung, over 100 µM; with SK-MEL-28 melanoma it was over 100 µM. The TGI was 91.2 µM with SF-539 CNS; over 100 µM in the assay on HS 578T breast; over 100 µM in the assay on MDA-MB-231 breast; over 100 µM with UO-31 renal; over 100 µM in the assay with OVCAR-8 ovarian; over 100 µM in the assay on 786-0 renal. Also, the TGI with MOLT-4 leukemia was 85.3 µM; in the assay on SR leukemia, over 100 µM; in the assay with OVCAR-3 ovarian it was over 100 µM; in the assay with IGROV1 ovarian, over 100 µM; with CAKI-1 renal it was over 100 µM; in the assay on CCRF-CEM leukemia it was 60.4 µM.
